US12116358B2, “Substituted indoles and methods of use thereof” (EPIZYME, INC., priority 2018, dated 2024)
Like-named read-outs stand apart in the source and are kept apart here.

Columns and labels:
H3K36me3 in A549 cells = assay: In-Cell Western (ICW) assay of SETD2 inhibitors (A549 assay); format: cell-based, human; settings: A549 cells, read-out: SETD2 A549
Procedure, shortened: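 H3K36me3 In-Cell Western: cells exposed to compound for 3 days at 4,000 cells/well, 37° C. DRAQ5 (1:1000) marked cell number, with 700/800-channel Licor read-out.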

SETD2(1434-1711) = biological target: T1, SETD2(1434-1711) (Homo sapiens, UniProt Q9BYW2); assay: SETD2 (1434-1711) assay; format: biochemical; settings: read-out: SETD2 (1434-1711)
T1 construct: SETD2 (1434-1711) Assay; catalogue N/A
T1 sequence (Q9BYW2 1434-1711): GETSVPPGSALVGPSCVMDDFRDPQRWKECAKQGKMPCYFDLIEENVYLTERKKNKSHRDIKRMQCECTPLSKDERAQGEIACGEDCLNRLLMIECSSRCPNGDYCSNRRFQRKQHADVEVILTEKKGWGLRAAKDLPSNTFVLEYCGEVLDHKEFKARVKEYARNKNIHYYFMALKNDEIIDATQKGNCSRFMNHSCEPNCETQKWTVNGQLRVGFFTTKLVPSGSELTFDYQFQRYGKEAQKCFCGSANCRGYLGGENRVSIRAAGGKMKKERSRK

Row | SMILES | IC50 (H3K36me3 in A549 cells) | IC50 (SETD2(1434-1711)) | IC50 (H3K36me3 in A549 cells; Homo sapiens)
1 | Cc1ccc(F)c2cc(C(=O)Nc3cccc(N4CC5CC(C4)O5)c3)[nH]c12 [compound 218] | 0.5 µM | 0.07 µM | –
2 | COCCN1CCN(c2cccc(NC(=O)c3cc4c(F)ccc(C)c4[nH]3)c2)CC1 [compound 223] | 0.5 µM | 0.09 µM | –
3 | Cc1ccc(F)c2cc(C(=O)Nc3cccc(C4COC4)c3)[nH]c12 [compound 224] | 0.5 µM | 0.2 µM | –
4 | Cc1ccc(F)c2cc(C(=O)Nc3cccc(-c4ccc(Cn5ccnc5)cc4)c3)[nH]c12 [compound 228] | 0.5 µM | 0.08 µM | –
5 | Cc1ccc(F)c2cc(C(=O)Nc3cccc(N4CCN(C)C(C(F)(F)F)C4)c3)[nH]c12 (centres unmarked) [compound 229] | 0.5 µM | 0.1 µM | –
6 | Cc1ccc(F)c2cc(C(=O)Nc3cccc(-c4ccc(OCCO)cc4)c3)[nH]c12 [compound 231] | 0.5 µM | 0.1 µM | –
7 | Cc1ccc(F)c2cc(C(=O)Nc3cccc(-c4cccn5nccc45)c3)[nH]c12 [compound 235] | – | 0.1 µM | 0.5 µM
8 | Cc1ccc(F)c2cc(C(=O)Nc3cccc(N4CCN(C5CC5)CC4)c3)[nH]c12 [compound 236] | 0.6 µM | 0.2 µM | –
9 | Cc1ccc(F)c2cc(C(=O)Nc3cccc(-c4nncn4C)c3)[nH]c12 [compound 237] | 0.6 µM | 0.1 µM | –
10 | Cc1ccc(F)c2cc(C(=O)Nc3cccc4ncccc34)[nH]c12 [compound 238] | 0.6 µM | 0.2 µM | –
11 | Cc1ccc(F)c2cc(C(=O)Nc3cccc(-c4ccnn4C)c3)[nH]c12 [compound 239] | 0.6 µM | 0.2 µM | –
12 | CC(=O)N1CCN(c2cc(NC(=O)c3cc4c(F)ccc(C)c4[nH]3)cc(C(F)(F)F)c2)CC1 [compound 242] | 0.6 µM | 0.1 µM | –
13 | Cc1ccc(F)c2cc(C(=O)Nc3cccc(CCN4CCN(C)CC4)c3)[nH]c12 [compound 244] | 0.6 µM | 0.08 µM | –
14 | CC(=O)N1CCCN(c2cccc(NC(=O)c3cc4c(F)ccc(C)c4[nH]3)c2)CC1 [compound 248] | 0.6 µM | 0.1 µM | –
15 | Cc1ccc(F)c2cc(C(=O)Nc3cccc(-c4ncon4)c3)[nH]c12 [compound 249] | – | 0.2 µM | 0.6 µM
16 | Cc1ccc(F)c2cc(C(=O)Nc3cccc(N4CC5CCC(C4)O5)c3)[nH]c12 [compound 250] | 0.6 µM | 0.1 µM | –
17 | Cc1ccc(F)c2cc(C(=O)Nc3cccc(-c4cn[nH]c4)c3)[nH]c12 [compound 252] | 0.6 µM | 0.2 µM | –
18 | Cc1ccc(F)c2cc(C(=O)Nc3cccc(CC(=O)N(C)C)c3)[nH]c12 [compound 256] | – | 0.2 µM | 0.6 µM

Row | SMILES | IC50 (H3K36me3 in A549 cells) | IC50 (SETD2(1434-1711)) | IC50 (H3K36me3 in A549 cells; Homo sapiens)
19 | CC(=O)N1C2CC1CN(c1cccc(NC(=O)c3cc4c(F)ccc(C)c4[nH]3)c1)C2 [compound 257] | – | 0.2 µM | 0.6 µM
20 | Cc1ccc(F)c2cc(C(=O)Nc3cccc(N4CCC5(CCN(CC(F)F)CC5)C4)c3)[nH]c12 [compound 259] | – | 0.1 µM | 0.6 µM
21 | Cc1ccc(F)c2cc(C(=O)Nc3cccc(N4CCN(C(=O)OC(C)(C)C)CC4)c3)[nH]c12 [compound 260] | – | 0.2 µM | 0.7 µM
22 | Cc1ccc(F)c2cc(C(=O)Nc3cccc(-c4ncco4)c3)[nH]c12 [compound 261] | – | 0.08 µM | 0.7 µM
23 | COC1(C)CCN(c2cccc(NC(=O)c3cc4c(F)ccc(C)c4[nH]3)c2)CC1 [compound 262] | – | 0.2 µM | 0.7 µM
24 | CC(=O)Nc1cccc(-c2cccc(NC(=O)c3cc4c(F)ccc(C)c4[nH]3)c2)c1 [compound 263] | – | 0.7 µM | 0.7 µM
25 | Cc1ccc(F)c2cc(C(=O)Nc3cccc(N4CCOCC4CO)c3)[nH]c12 (centres unmarked) [compound 265] | – | 0.2 µM | 0.7 µM
26 | Cc1ccc(F)c2cc(C(=O)Nc3cccc(-c4cccc(CN(C)C)c4)c3)[nH]c12 [compound 266] | – | 0.06 µM | 0.7 µM
27 | CC(=O)N1CCC(C(N)=O)(c2cc(F)cc(NC(=O)c3cc4c(F)ccc(C)c4[nH]3)c2)CC1 [compound 267] | – | 0.01 µM | 0.7 µM
28 | Cc1ccc(F)c2cc(C(=O)Nc3cccc(N4CCC(O)(C5CCN(C)CC5)CC4)c3)[nH]c12 [compound 268] | – | 0.06 µM | 0.7 µM
29 | COc1ccnc(C(NC(=O)c2cc3c(F)ccc(C)c3[nH]2)C2CC2)c1C (centres unmarked) [compound 269] | – | 0.1 µM | 0.7 µM
30 | CC(=O)N1CCN(c2cc(F)cc(NC(=O)c3cc4c(F)cccc4[nH]3)c2)CC1 [compound 271] | – | 0.2 µM | 0.8 µM
31 | Cc1ccc(F)c2cc(C(=O)Nc3cccc(-c4cccc5nccn45)c3)[nH]c12 [compound 272] | – | 0.1 µM | 0.8 µM
32 | Cc1cc(Cn2cc[nH]c2=O)cnc1C(NC(=O)c1cc2c(F)ccc(C)c2[nH]1)C1CC1 (centres unmarked) [compound 273] | – | 0.2 µM | 0.8 µM
33 | Cc1ccc(F)c2cc(C(=O)Nc3cccc(-n4cnc(CN(C)C)n4)c3)[nH]c12 [compound 276] | – | 0.09 µM | 0.9 µM
34 | Cc1ccc(F)c2cc(C(=O)Nc3cccc(N4CCN(C)CC4CO)c3)[nH]c12 (centres unmarked) [compound 277] | – | 0.2 µM | 0.9 µM
35 | Cc1ccc(F)c2cc(C(=O)Nc3cccc(-c4ccc5cncn5c4)c3)[nH]c12 [compound 278] | 0.9 µM | 0.07 µM | –
36 | Cc1ccc(F)c2cc(C(=O)Nc3cccc(N4CCN(C(C)C)CC4C)c3)[nH]c12 (centres unmarked) [compound 280] | – | 0.1 µM | 0.9 µM

More lines, now with the values ahead:

Row | IC50 (H3K36me3 in A549 cells) | IC50 (SETD2(1434-1711)) | IC50 (H3K36me3 in A549 cells; Homo sapiens) | SMILES
37 | 0.5 µM | 0.01 µM | – | Cc1ccc(F)c2cc(C(=O)Nc3cccc([C@@H]4CC[C@@H](N(C)C)C4)c3)[nH]c12 [compound 217]
38 | 0.5 µM | 0.06 µM | – | Cc1ccc(F)c2cc(C(=O)Nc3cccc(-c4cnn(CCO)c4)c3)[nH]c12 [compound 219]
39 | 0.5 µM | 0.04 µM | – | Cc1ccc(F)c2cc(C(=O)Nc3cccc(N4CCN5CCCC5C4)c3)[nH]c12 (centres unmarked) [compound 220]
40 | 0.5 µM | 0.02 µM | – | Cc1ccc(F)c2cc(C(=O)Nc3cccc(N4CCC(C)(N(C)C)CC4)c3)[nH]c12 [compound 222]
41 | 0.5 µM | 0.03 µM | – | CCCNC1CCN(c2cccc(NC(=O)c3cc4c(F)ccc(C)c4[nH]3)c2)CC1 [compound 225]
42 | 0.5 µM | 0.06 µM | – | Cc1ccc(F)c2cc(C(=O)Nc3cccc(C4CCN(C(=O)CN(C)C)C4)c3)[nH]c12 (centres unmarked) [compound 226]
43 | 0.5 µM | 0.03 µM | – | Cc1ccc(F)c2cc(C(=O)Nc3cccc(N4CCC(N(CCO)CCO)CC4)c3)[nH]c12 [compound 227]
44 | 0.5 µM | 0.04 µM | – | Cc1ccc(F)c2cc(C(=O)Nc3cc(F)cc(C4CCN(C5CCN(C)C5=O)C4)c3)[nH]c12 (centres unmarked) [compound 230]
45 | – | 0.06 µM | 0.5 µM | Cc1ccc(F)c2cc(C(=O)Nc3cc(N4CCN(C)CC4)n4cncc4c3)[nH]c12 [compound 232]
46 | 0.5 µM | 0.05 µM | – | Cc1ccc(F)c2cc(C(=O)Nc3cccc(N4CCn5ccnc5C4)c3)[nH]c12 [compound 233]
47 | 0.6 µM | 0.02 µM | – | Cc1ccc(F)c2cc(C(=O)Nc3cccc(N4CCC(OCCN)CC4)c3)[nH]c12 [compound 240]
48 | 0.6 µM | 0.01 µM | – | Cc1ccc(F)c2cc(C(=O)Nc3cccc(N4CCC5(CCNC5)CC4)c3)[nH]c12 [compound 241]
49 | 0.6 µM | 0.05 µM | – | Cc1ccc(F)c2cc(C(=O)Nc3cccc(N4CCN(C(C)C)CC4)c3)[nH]c12 [compound 243]
50 | 0.6 µM | 0.01 µM | – | Cc1ccc(F)c2cc(C(=O)Nc3cccc(N4CC5CCN(C)C5C4)c3)[nH]c12 (centres unmarked) [compound 245]
51 | 0.6 µM | 0.009 µM | – | Cc1ccc(F)c2cc(C(=O)Nc3cc(Cl)cc(N4CCC(CCCN)CC4)c3)[nH]c12 [compound 246]
52 | – | 0.05 µM | 0.6 µM | Cc1ccc(F)c2cc(C(=O)Nc3cccc4c3cnn4C3CCN(C)CC3)[nH]c12 [compound 247]
53 | 0.6 µM | 0.01 µM | – | Cc1ccc(F)c2cc(C(=O)Nc3cccc(C45CCC(N(C)C)CC4C5)c3)[nH]c12 (centres unmarked) [compound 251]
54 | 0.6 µM | 0.05 µM | – | COCC1(N(C)C)CCN(c2cccc(NC(=O)c3cc4c(F)ccc(C)c4[nH]3)c2)CC1 [compound 253]
55 | – | 0.06 µM | 0.6 µM | Cc1ccc(F)c2cc(C(=O)Nc3cccc(N4CCC(O)(CN(C)C)CC4)c3)[nH]c12 [compound 254]
56 | – | 0.03 µM | 0.6 µM | Cc1ccc(F)c2cc(C(=O)Nc3cccc(C4(C#N)CCC(N(C)C)CC4)c3)[nH]c12 (centres unmarked) [compound 255]
57 | – | 0.04 µM | 0.6 µM | Cc1cc(CCN2CCN(C)CC2)cnc1C(Cc1ccccc1)NC(=O)c1cc2c(F)ccc(C)c2[nH]1 (centres unmarked) [compound 258]
58 | – | 0.02 µM | 0.7 µM | Cc1ccc(F)c2cc(C(=O)Nc3cccc([C@H]4CC[C@H](N(C)C)C4)c3)[nH]c12 [compound 264]
59 | – | 0.05 µM | 0.8 µM | Cc1ccc(NC(=O)c2cc3c(F)ccc(C)c3[nH]2)cc1N1CCN(C)CC1 [compound 270]
60 | – | 0.04 µM | 0.8 µM | Cc1ccc(F)c2cc(C(=O)Nc3cc(CF)cc(N4CCC(N(C)C)CC4)c3)[nH]c12 [compound 274]
61 | – | 0.04 µM | 0.9 µM | Cc1ccc(F)c2cc(C(=O)Nc3cccc(N4CCCN(C)CC4)c3)[nH]c12 [compound 279]
